One assay addresses KRas (Homo sapiens (Human), UniProt P01116). Description: KRas GDP HTRF (BODIPY-GDP exchange TR-FRET). Format: biochemical. The method, then: KRAS Biochemical Assay—BODIPY-GDP Exchange TR-FRET. Biochemical compound potencies were assessed by evaluating inhibition of SOS1-mediated nucleotide exchange in KRAS G12D. The SOS1-promoted exchange of fluorescently-labeled GDP (BODIPY-GDP) was monitored by time-resolved fluorescence resonance energy transfer (TR-FRET). Compounds solubilized in DMSO were dispensed as concentration series into 384-well white assay plates. […] The reaction was initiated with the addition of 5 μL of 3 nM recombinant human SOS1 and 300 nM BODIPY-GDP in assay buffer. After a 60-minute incubation, the fluorescence was measured with excitation at 337 nm and emission at 490 and 520 nm. The TR-FRET ratio was determined as the fluorescence at 520 nm divided by the fluorescence at 490 nm multiplied by 10,000. […] The normalized TR-FRET results were plotted against compound concentration, and the data fit to a 4-parameter Hill equation to determine the IC50 values.

Another assay concerns the target KRas(G12V) (Homo sapiens (Human), UniProt P01116, G12V). Briefly: KRas(G12V) GDP HTRF (BODIPY-GDP exchange TR-FRET). Format: biochemical. Background: TR-FRET usually uses a lanthanide donor and a delayed reading to cut background.

KRas(G12V), sequence (P01116-2 other isoform, or with tags, fused parts or gaps G12V): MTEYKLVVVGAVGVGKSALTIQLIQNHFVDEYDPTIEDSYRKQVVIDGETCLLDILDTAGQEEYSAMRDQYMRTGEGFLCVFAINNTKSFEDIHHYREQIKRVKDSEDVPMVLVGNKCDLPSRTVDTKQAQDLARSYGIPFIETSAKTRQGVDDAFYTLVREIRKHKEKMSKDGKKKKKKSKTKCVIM
KRas, sequence (P01116-2 other isoform, or with tags, fused parts or gaps): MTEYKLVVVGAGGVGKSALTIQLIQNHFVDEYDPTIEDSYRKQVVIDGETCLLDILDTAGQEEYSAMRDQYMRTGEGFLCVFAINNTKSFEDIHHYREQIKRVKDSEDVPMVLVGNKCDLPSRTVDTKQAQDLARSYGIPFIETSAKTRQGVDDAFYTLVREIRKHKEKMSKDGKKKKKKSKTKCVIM

As a reminder, the IC50 is the concentration at which inhibition is half-maximal. Lower therefore signals greater potency in that assay. Consider `Cc1cc(N)nc(-c2c(Cl)c3c4c(nc(OC[C@@H]5C[C@H]6COCCN65)nc4c2F)N([C@H](C)c2cccnc2N)CCO3)c1C(F)(F)F` (atropisomer, axis not shown) [Example 99a, 6-((R)-2-(((6S,8S)-4-oxa-1-azabicyclo[4.2.0]octan-8-yl)methoxy)-4-((R)-1-(2-aminopyridin-3-yl)ethyl)-8-chloro-10-fluoro-5,6-dihydro-4H-[1,4]oxazepino[5,6,7-de]quinazolin-9-yl)-4-methyl-5-(trifluoromethyl)pyridin-2-amine], for which the IC50 amounted to 0.125 nM against KRas and 0.07 nM at KRas(G12V).

With `Cc1cc(N)nc(-c2cc3ncnc4c3c(c2Cl)OC[C@H](CC#N)N4C)c1C(F)(F)F` [Example 43, (S)-2-(9-(6-amino-4-methyl-3-(trifluoromethyl)pyridin-2-yl)-8-chloro-4-methyl-5,6-dihydro-4H-[1,4]oxazepino[5,6,7-de]quinazolin-5-yl)acetonitrile], the figures for the IC50 on KRas and on KRas(G12V) were 4900 nM and 2000 nM, respectively.

For `Cc1cc(N)nc(-c2c(Cl)c3c4c(nc(OC[C@@]56CCCN5C[C@H](F)C6)nc4c2F)N([C@H](C)c2cc(Cl)cnc2N)CCO3)c1C(F)(F)F` [Example 131, 6-(4-((R)-1-(2-amino-5-chloropyridin-3-yl)ethyl)-8-chloro-10-fluoro-2-(((2R,7aS)-2-fluorotetrahydro-1H-pyrrolizin-7a(5H)-yl)methoxy)-5,6-dihydro-4H-[1,4]oxazepino[5,6,7-de]quinazolin-9-yl)-4-methyl-5-(trifluoromethyl)pyridin-2-amine], the IC50 was 0.253 nM against KRas and 0.14 nM against KRas(G12V).

Consider `Cc1cc(N)nc(-c2cc3ncnc4c3c(c2Cl)OCCN4C2CCc3c(N)cncc32)c1C(F)(F)F` (stereo not shown) [Example 37, 7-(9-(6-amino-4-methyl-3-(trifluoromethyl)pyridin-2-yl)-8-chloro-5,6-dihydro-4H-[1,4]oxazepino[5,6,7-de]quinazolin-4-yl)-6,7-dihydro-5H-cyclopenta[c]pyridin-4-amine], for which the IC50 against KRas is 270 nM; against KRas(G12V), 53 nM.

Regarding `C[C@H](c1cccnc1N)N1CCOc2c(Cl)c(-c3cccc4sc(N)nc34)c(F)c3nc(OC[C@@]45CCCN4C[C@H](F)C5)nc1c23` (atropisomer, axis not shown; (aS)) [Example 100a, 4-((R)-4-((R)-1-(2-aminopyridin-3-yl)ethyl)-8-chloro-10-fluoro-2-(((2R,7aS)-2-fluorotetrahydro-1H-pyrrolizin-7a(5H)-yl)methoxy)-5,6-dihydro-4H-[1,4]oxazepino[5,6,7-de]quinazolin-9-yl)benzo[d]thiazol-2-amine], the IC50 against KRas and at KRas(G12V) was 0.03 nM in each case.

Regarding `Cc1cc(N)nc(-c2c(Cl)c3c4c(nc(OC[C@@H](C)N5CCOCC5)nc4c2F)N([C@H](C)c2cccnc2N)CCO3)c1C(F)(F)F` (atropisomer, axis not shown) [Example 95b, 6-((R)-4-((R)-1-(2-aminopyridin-3-yl)ethyl)-8-chloro-10-fluoro-2-((R)-2-morpholinopropoxy)-5,6-dihydro-4H-[1,4]oxazepino[5,6,7-de]quinazolin-9-yl)-4-methyl-5-(trifluoromethyl)pyridin-2-amine], the figures for the IC50 against KRas and on KRas(G12V) were 0.484 nM and 0.12 nM, respectively.

For `Cc1cc(N)nc(-c2c(Cl)c3c4c(nc(OCCN5C6CCC5CN(C)C6)nc4c2F)N([C@H](C)c2cccnc2N)CCO3)c1C(F)(F)F` [Example 94, 6-((9R)-4-((R)-1-(2-aminopyridin-3-yl)ethyl)-8-chloro-10-fluoro-2-(2-(3-methyl-3,8-diazabicyclo[3.2.1]octan-8-yl)ethoxy)-5,6-dihydro-4H-[1,4]oxazepino[5,6,7-de]quinazolin-9-yl)-4-methyl-5-(trifluoromethyl)pyridin-2-amine], the IC50 at KRas worked out at 0.175 nM; against KRas(G12V), 0.07 nM.

As for `Cc1cc(N)nc(-c2c(Cl)c3c4c(nc(OC[C@@]56CCCN5C[C@H](F)C6)nc4c2F)N(C)CCO3)c1C(F)(F)F` (single isomer, unassigned) [Example 41b], the values for the IC50 against KRas and at KRas(G12V) were 6500 nM and 1200 nM, respectively.

`Cc1cc(N)nc(-c2c(Cl)c3c4c(nc(OC[C@@H]5CC[C@H]6CO[C@@H](C)CN56)nc4c2F)N([C@H](C)c2cccnc2N)CCO3)c1C(F)(F)F` (atropisomer, axis not shown; (aS)) [Example 93a, 6-((R)-4-((R)-1-(2-aminopyridin-3-yl)ethyl)-8-chloro-10-fluoro-2-(((3S,6S,8aS)-3-methylhexahydro-1H-pyrrolo[2,1-c][1,4]oxazin-6-yl)methoxy)-5,6-dihydro-4H-[1,4]oxazepino[5,6,7-de]quinazolin-9-yl)-4-methyl-5-(trifluoromethyl)pyridin-2-amine]: the IC50 at KRas was 0.201 nM; against KRas(G12V) it was 0.09 nM.

As for `Cc1cc(N)nc(-c2c(Cl)c3c4c(nc(OC[C@]56CCCN5CC(F)(F)C6)nc4c2F)N([C@H](C)c2nccnc2N)CCO3)c1C(F)(F)F` (atropisomer, axis not shown) [Example 166a, 3-((R)-1-((R)-9-(6-amino-4-methyl-3-(trifluoromethyl)pyridin-2-yl)-8-chloro-2-(((R)-2,2-difluorotetrahydro-1H-pyrrolizin-7a(5H)-yl)methoxy)-10-fluoro-5,6-dihydro-4H-[1,4]oxazepino[5,6,7-de]quinazolin-4-yl)ethyl)pyrazin-2-amine], the IC50 against KRas worked out at 2.06 nM; on KRas(G12V), 0.56 nM.

`Cc1cc(N)nc(-c2cc3ncnc4c3c(c2Cl)OCCN4[C@@H](C)c2cncc(N)c2)c1C(F)(F)F` [Example 4, (S)-6-(4-(1-(5-aminopyridin-3-yl)ethyl)-8-chloro-5,6-dihydro-4H-[1,4]oxazepino[5,6,7-de]quinazolin-9-yl)-4-methyl-5-(trifluoromethyl)pyridin-2-amine]: the IC50 worked out at 10000 nM against KRas and 1400 nM against KRas(G12V).

As for `Cc1cc(N)nc(-c2cc3ncnc4c3c(c2Cl)OCCN4CCC2COC2)c1C(F)(F)F` [Example 14, 6-(8-chloro-4-(2-(oxetan-3-yl)ethyl)-5,6-dihydro-4H-[1,4]oxazepino[5,6,7-de]quinazolin-9-yl)-4-methyl-5-(trifluoromethyl)pyridin-2-amine], the values for the IC50 at KRas and at KRas(G12V) were 200000 nM and 21000 nM, respectively.

For `Cc1cc(N)nc(-c2c(Cl)c3c4c(nc(OC[C@@H]5C[C@@]6(CN5C)CC6(F)F)nc4c2F)N([C@H](C)c2nccnc2N)CCO3)c1C(F)(F)F` (atropisomer, axis not shown) [Example 171b, 3-((R)-1-((S)-9-(6-amino-4-methyl-3-(trifluoromethyl)pyridin-2-yl)-8-chloro-2-(((3S,6S)-1,1-difluoro-5-methyl-5-azaspiro[2.4]heptan-6-yl)methoxy)-10-fluoro-5,6-dihydro-4H-[1,4]oxazepino[5,6,7-de]quinazolin-4-yl)ethyl)pyrazin-2-amine], the figures for the IC50 on KRas and on KRas(G12V) were 2090 nM and 900 nM, respectively.

As to `Cc1cc(N)nc(-c2c(Cl)c3c4c(nc(OC[C@@H]5CC[C@H]6CO[C@H](C)CN56)nc4c2F)N([C@H](C)c2cccnc2N)CCO3)c1C(F)(F)F` (atropisomer, axis not shown; (aS)) [Example 93c, 6-((R)-4-((R)-1-(2-aminopyridin-3-yl)ethyl)-8-chloro-10-fluoro-2-(((3R,6S,8aS)-3-methylhexahydro-1H-pyrrolo[2,1-c][1,4]oxazin-6-yl)methoxy)-5,6-dihydro-4H-[1,4]oxazepino[5,6,7-de]quinazolin-9-yl)-4-methyl-5-(trifluoromethyl)pyridin-2-amine], the figures for the IC50 at KRas and at KRas(G12V) were 0.145 nM and 0.07 nM, respectively.

With `Cc1cc(N)nc(-c2cc3ncnc4c3c(c2Cl)OCCN4C(C)CO)c1C(F)(F)F` (stereo not shown) [Example 16, 2-(9-(6-amino-4-methyl-3-(trifluoromethyl)pyridin-2-yl)-8-chloro-5,6-dihydro-4H-[1,4]oxazepino[5,6,7-de]quinazolin-4-yl)propan-1-ol], the IC50 on KRas came out at 32000 nM; against KRas(G12V), 6900 nM.

On to `C[C@H](c1cccnc1N)N1CCOc2c(Cl)c(-c3cccc4sc(N)nc34)c(F)c3nc(OC[C@@]45CCCN4C[C@H](F)C5)nc1c23` (atropisomer, axis not shown; (aS)) [Example 100b, 4-((S)-4-((R)-1-(2-aminopyridin-3-yl)ethyl)-8-chloro-10-fluoro-2-(((2R,7aS)-2-fluorotetrahydro-1H-pyrrolizin-7a(5H)-yl)methoxy)-5,6-dihydro-4H-[1,4]oxazepino[5,6,7-de]quinazolin-9-yl)benzo[d]thiazol-2-amine], for which the values for the IC50 against KRas and on KRas(G12V) were 0.353 nM and 0.73 nM, respectively.

`Cc1cc(N)nc(-c2c(Cl)c3c4c(nc(OC[C@H]5C[C@@H]6COCCN65)nc4c2F)N([C@H](C)c2cccnc2N)CCO3)c1C(F)(F)F` (atropisomer, axis not shown) [Example 99b, 6-((R)-2-(((6R,8R)-4-oxa-1-azabicyclo[4.2.0]octan-8-yl)methoxy)-4-((R)-1-(2-aminopyridin-3-yl)ethyl)-8-chloro-10-fluoro-5,6-dihydro-4H-[1,4]oxazepino[5,6,7-de]quinazolin-9-yl)-4-methyl-5-(trifluoromethyl)pyridin-2-amine]: the IC50 against KRas was found to be 0.0748 nM; against KRas(G12V), 0.08 nM.

The values are drawn from patent US20240383915A1, “OXAZEPINE COMPOUNDS AND USES THEREOF IN THE TREATMENT OF CANCER” (Genentech, Inc., priority 2021, published 2024).
